Read-outs that look alike come from different tables or passages of the source.
Tests used:
[1] = system: platelet aggregation by ADP; assay: Platelet aggregation inhibitory activity after oral administration to rats (blood sampled one hour after dosing); format: in vivo; conditions: rat
Method: (§1) With a siliconized injection syringe wetted with heparin, a blood sample was taken from the descending artery of a rat and centrifuged at 4° C. and 1,000 r.p.m. for 10 minutes to obtain a platelet-rich plasma (PRP). The test drug solutions were prepared as follows. The test drug was dissolved in 0.02 M Tris-HCl buffer containing 1% of dimethylformamide and isotonicated with sodium (pH 7.4). To 0.4 ml of the above PRP was added 3.0 ml of the test drug solution, followed by the addition of 0.1 ml of 10^-4 M ADP. The resultant aggregation of platelets was measured with an aggregation meter [Nippon Bunko Medical K.K.]. The activity of the test drug was first assayed by determining the primary aggregation inhibitory effect in terms of inhibition rate (%) in relation to the maximum light transmittance of control PRP which is altered by ADP.
(2) The platelet aggregation inhibitory activity of Compound (I) (oral administration)
In one hour after oral administration of the test drug to rats, a blood sample was taken from each of the tested rats and the inhibition rate was assayed in accordance with the procedure as mentioned above (1)-a).

[2] = system: primary aggregation of platelets by ADP; assay: Inhibitory activity to the (primary) platelet aggregation induced by ADP, aggregation meter, rat PRP; format: cell-based; conditions: average of 5 cases
Method: (a) Inhibitory activity to the platelet aggregation induced by ADP (adenosine diphosphate)
as §1
The inhibition rates shown are each an average of 5 cases.

[3] = system: thrombocyte (platelet) aggregation; assay: Inhibition activity of platelet aggregation in mammalian blood (general statement)
[4] = system: ADP-induced platelet aggregation; assay: Inhibitory activity to the ADP-induced platelet aggregation measured by the platelet-counting-method, rat PRP; format: cell-based; conditions: platelet counting (Coulter Counter)
Method: (b) Inhibitory activity to the ADP-induced platelet aggregation measured by the platelet-counting-method.
The test drug was dissolved in Na-isotonic 0.02 M Tris-HCl buffer (pH 7.4) containing 1% of dimethylformamide and to 1.5 ml of the test drug solution was added 0.5 ml of the rat-PRP. The mixture was incubated at 37° C. for one minute, followed by the addition of 1 ml of 5×10^-5 M-ADP-physiological saline, and further incubated for 45 seconds. To the solvent as mentioned above was added rat-PRP of the same volume as above. The mixture was incubated at 37° C. for one minute, which was used as the control preparation.
The rate of non-aggregation (inhibitory rate of aggregation) was assayed against the control by counting the number of the platelets in each sample as a single platelet by means of Coulter Counter and by determining the number of the platelets after the addition of ADP as non-aggregated platelets.

mice = conditions: mouse, in vivo
Excerpt: (3) The toxicity of compound (I)

SMILES	Rate of inhibition of the platelet aggregation by ADP ([1]; 10 mg/kg body weight)	Rate of inhibition of the platelet aggregation by ADP ([1]; 25 mg/kg body weight)	Rate of inhibition of the platelet aggregation by ADP ([1]; 50 mg/kg body weight)	Rate of inhibition of the primary aggregation of platelets by ADP ([2]; 1.0 × 10^-4 mol. conc.)	Rate of inhibition of the primary aggregation of platelets by ADP ([2]; 2.5 × 10^-4 mol. conc.)	Rate of inhibition of the primary aggregation of platelets by ADP ([2]; 5.0 × 10^-4 mol. conc.)	inhibition activity of thrombocyte (platelet) aggregation [3]	Rate of inhibition of the aggregation ([4]; 0.5 × 10^-4 mol. conc.)	Rate of inhibition of the aggregation ([4]; 1 × 10^-4 mol. conc.)	Rate of inhibition of the aggregation ([4]; 5 × 10^-4 mol. conc.)	Rate of inhibition of the platelet aggregation by ADP ([1]; 5 mg/kg body weight)	Rate of inhibition of the primary aggregation of platelets by ADP ([2]; 0.5 × 10^-4 mol. conc.)	Rate of inhibition of the primary aggregation of platelets by ADP ([2]; 0.75 × 10^-4 mol. conc.)	toxic reactions (mice; ip, 100 mg/kg)	toxic reactions (mice; po, 300 mg/kg)	Rate of inhibition of the platelet aggregation by ADP ([1]; 100 mg/kg body weight)
CC(C(=O)O)c1cccc(C(=O)c2ccccc2)c1 (centres unmarked) [Ketoprofen]	7.2%	13.5%	18.6%	19.6%	36.0%	71.5%										
O=C1c2ccccc2SC12CC2 [Compound (I), 3-oxo-2,3-dihydro[1]benzothiophene-2-spirocyclopropane]	12.7%	20.0%	21.9%	82.3%	96.9%	97.7%	strong inhibition activity	13.02 ± 2.20%	16.09 ± 3.14%	80.98 ± 2.92%	-3.6%	10.9%	52.4%	nor was any toxic reaction noted	No toxic reactions were elicited	
CCOC(=O)COc1ccc2c(C)c(CCN(CC)CC)c(=O)oc2c1 [Carbochromen]								5.12 ± 2.20%	12.75 ± 2.26%	15.95 ± 1.87%						
CC(=O)Oc1ccccc1C(=O)O [Aspirin]			0%	10.6%	28.8%	60.4%		6.51 ± 1.86%	-15.81 ± 5.65%	-7.11 ± 0.98%						4.3%
COc1ccc2c(c1)c(CC(=O)O)c(C)n2C(=O)c1ccc(Cl)cc1 [Indomethacin]	12.4%	11.2%		8.0%	31.5%	71.4%		8.18 ± 2.21%	0.85 ± 0.20%	64.66 ± 1.76%	12.5%					

From patent publication US4304784A, “Composition and method for inhibiting platelet aggregation” (Takeda Chemical Industries, Ltd., priority 1978, dated 1981)
